Laboratory results reported in patent US20240246967A1, “AXL COMPOUNDS” (ARCUS BIOSCIENCES, INC., priority 2021, published 2024).

What follows are compounds tested against T1, Axl (Homo sapiens, UniProt P30530) (assay: Axl NanoBRET intracellular kinase assay (intracellular binding, Cell Binding)). Settings: HEK-293 cells transfected with Axl-NanoLuc fusion vector; 0.35 μM K-5 NanoBRET tracer.
T1 sequence (P30530 26-894): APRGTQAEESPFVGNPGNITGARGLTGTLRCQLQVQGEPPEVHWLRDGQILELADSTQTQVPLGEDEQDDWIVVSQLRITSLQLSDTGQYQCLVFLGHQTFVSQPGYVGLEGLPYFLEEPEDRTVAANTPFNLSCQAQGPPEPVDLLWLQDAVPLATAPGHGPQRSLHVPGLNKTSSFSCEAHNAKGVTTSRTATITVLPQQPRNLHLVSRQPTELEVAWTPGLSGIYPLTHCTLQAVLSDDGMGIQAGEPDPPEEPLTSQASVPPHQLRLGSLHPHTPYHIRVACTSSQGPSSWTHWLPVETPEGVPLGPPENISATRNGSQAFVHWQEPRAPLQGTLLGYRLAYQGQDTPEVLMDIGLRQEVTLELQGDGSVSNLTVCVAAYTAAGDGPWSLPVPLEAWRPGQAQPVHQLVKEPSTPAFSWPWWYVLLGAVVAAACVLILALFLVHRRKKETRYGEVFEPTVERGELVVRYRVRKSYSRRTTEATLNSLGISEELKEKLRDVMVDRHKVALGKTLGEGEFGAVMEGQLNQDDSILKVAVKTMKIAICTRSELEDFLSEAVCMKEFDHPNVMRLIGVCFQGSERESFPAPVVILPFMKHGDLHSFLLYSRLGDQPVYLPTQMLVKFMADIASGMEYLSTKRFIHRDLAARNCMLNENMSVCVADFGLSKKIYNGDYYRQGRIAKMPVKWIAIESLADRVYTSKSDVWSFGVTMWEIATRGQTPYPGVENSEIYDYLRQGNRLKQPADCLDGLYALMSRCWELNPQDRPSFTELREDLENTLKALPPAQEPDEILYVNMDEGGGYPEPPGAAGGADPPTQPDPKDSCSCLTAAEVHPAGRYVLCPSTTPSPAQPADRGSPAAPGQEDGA
Parameters: host or cells: HEK-293
Description: Axl NanoBRET™ intracellular kinase assay (Promega, N2540) was performed according to manufacturer's recommendation. In brief, HEK-293 cells are transiently transfected with Axl-NanoLuc fusion vector (Promega, NV1071), utilizing Fugene HD transfection reagent (Promega, E2311) a day before experiment following manufacturer's recommendation.
The day of the assay, the cells were collected and resuspended in Opti-MEM media (ThermoFisher, 31985070) at 2e5 cells/mL concentration. Testing compounds were serial diluted and dispensed into a white 384 well polystyrene plate at 200 nL in 100% DMSO. 40 μL of resuspended cells is then added per well for a final condition of 8K cells/well with 0.5% DMSO. After one-hour compound pre-incubation at 37° C. and 5% CO2, cells were further incubated with 0.35 μM K-5 NanoBRET tracer for two-hours at 37° C. and 5% CO2. […] of 3× substrate plus Inhibitor solution was prepared according to kits manual and added to the cells followed by a 30 second pulse centrifugation spin. The plate was then immediately read utilizing an Envision (Perkin Elmer) plate reader. The BRET signal is measured by taking the ratio of the emissions reading at 610 nm and 450 nm. Compound binding is based on the decrease BRET signal caused by the displacement of the K-5 tracer. […] IC50 value of compounds was determined by 4-parameter non-linear regression fitting of percent activity in GraphPad Prism software.

Structure (SMILES)	IC50 [nM]
CC1(N[C@H]2CCOC2)CCc2ccc(-c3cnc4[nH]nc(-c5ccc(S(=O)(=O)C6CC6)cc5)c4c3)cc2CC1 (stereo partly drawn) [Example 115, (3S)-N-(2-{3-[4-(Cyclopropanesulfonyl)phenyl]-1H-pyrazolo[3,4-b]pyridin-5-yl}-7-methyl-6,7,8,9-tetrahydro-5H-benzo[7]annulen-7-yl)oxolan-3-amine]	100 to 1000
C[C@@H]1CCCN1C1(C)CCc2ccc(-c3cnc4[nH]nc(-c5ccc(C(=O)N[C@@H]6CCOC6)cc5)c4c3)cc2CC1 (stereo partly drawn) [Example 99, 4-(5-{7-Methyl-7-[(2R)-2-methylpyrrolidin-1-yl]-6,7,8,9-tetrahydro-5H-benzo[7]annulen-2-yl}-1H-pyrazolo[3,4-b]pyridin-3-yl)-N-[(3R)-oxolan-3-yl]benzamide]	< 100
C[C@@H]1CCCN1C1(C)CCc2ccc(-c3cnc4[nH]nc(-c5ccc(N6CCOCC6)cc5)c4c3)cc2CC1 (stereo partly drawn) [Example 107, 4-[4-(5-{7-Methyl-7-[(2R)-2-methylpyrrolidin-1-yl]-6,7,8,9-tetrahydro-5H-benzo[7]annulen-2-yl}-1H-pyrazolo[3,4-b]pyridin-3-yl)phenyl]morpholine]	> 1000
C[C@@H]1CCCN1C1(C)CCc2ccc(-c3cnc4[nH]nc(-c5ccc(C(=O)N[C@H]6CCOC6)cc5)c4c3)cc2CC1 (stereo partly drawn) [Example 117, 4-(5-{7-Methyl-7-[(2R)-2-methylpyrrolidin-1-yl]-6,7,8,9-tetrahydro-5H-benzo[7]annulen-2-yl}-1H-pyrazolo[3,4-b]pyridin-3-yl)-N-[(3S)-oxolan-3-yl]benzamide]	< 100
O=S(=O)(c1ccc(-c2n[nH]c3ncc(-c4ccc5c(c4)CCN(CC4CCOC4)CC5)cc23)cc1)C1CC1 (stereo not drawn) [Example 27, 7-{3-[4-(Cyclopropanesulfonyl)phenyl]-1H-pyrazolo[3,4-b]pyridin-5-yl}-3-[(oxolan-3-yl)methyl]-2,3,4,5-tetrahydro-1H-3-benzazepine]	100 to 1000
O=C1OCCN1c1ccc(-c2n[nH]c3ncc(-c4ccc5c(c4)CC[C@@H](N4C6COCC4C6)CC5)cc23)cc1 [Example 121, 3-(4-{5-[(7S)-7-{3-oxa-6-azabicyclo[3.1.1]heptan-6-yl}-6,7,8,9-tetrahydro-5H-benzo[7]annulen-2-yl]-2H-pyrazolo[3,4-b]pyridin-3-yl}phenyl)-1,3-oxazolidin-2-one]	< 100
C[C@@H]1CCCN1C1(C)CCc2ccc(-c3cnc4[nH]nc(-c5ccc(S(=O)(=O)C6CCCC6)cc5)c4c3)cc2CC1 (stereo partly drawn) [Example 45, 3-(4-(Cyclopentylsulfonyl)phenyl)-5-(7-methyl-7-((R)-2-methylpyrrolidin-1-yl)-6,7,8,9-tetrahydro-5H-benzo[7]annulen-2-yl)-1H-pyrazolo[3,4-b]pyridine]	100 to 1000
CC1(N2CCC[C@H]2CO)CCc2ccc(-c3cnc4[nH]nc(-c5ccc(S(=O)(=O)C6CC6)cc5)c4c3)cc2CC1 (stereo partly drawn) [Example 4, [(2S)-1-(2-{3-[4-(Cyclopropanesulfonyl)phenyl]-1H-pyrazolo[3,4-b]pyridin-5-yl}-7-methyl-6,7,8,9-tetrahydro-5H-benzo[7]annulen-7-yl)pyrrolidin-2-yl]methanol]	< 100
C[C@@H]1CCCN1C1(C)CCc2ccc(-c3cnc4[nH]nc(-c5ccc(S(=O)(=O)C6CCC6)cc5)c4c3)cc2CC1 (stereo partly drawn) [Example 46, 3-(4-(Cyclobutylsulfonyl)phenyl)-5-(7-methyl-7-((R)-2-methylpyrrolidin-1-yl)-6,7,8,9-tetrahydro-5H-benzo[7]annulen-2-yl)-1H-pyrazolo[3,4-b]pyridine]	< 100

The remaining lines, values ahead:

IC50 [nM]	Structure (SMILES)
< 100	Cc1cc(-c2n[nH]c3ncc(-c4ccc5c(c4)CC[C@@H](N4CCCC4)CC5)cc23)cc(C)c1C(N)=O [Example 49, 2,6-Dimethyl-4-{5-[(7S)-7-(pyrrolidin-1-yl)-6,7,8,9-tetrahydro-5H-benzo[7]annulen-2-yl]-1H-pyrazolo[3,4-b]pyridin-3-yl}benzamide]
100 to 1000	CC(C)(O)c1ccc(-c2n[nH]c3ncc(-c4ccc5c(c4)CCN(C4CCCC4)CC5)cc23)cc1C(F)(F)F [Example 16, 2-{4-[5-(3-Cyclopentyl-2,3,4,5-tetrahydro-1H-3-benzazepin-7-yl)-1H-pyrazolo[3,4-b]pyridin-3-yl]-2-(trifluoromethyl)phenyl}propan-2-ol]
> 1000	CC(C)(O)c1ccc(-c2n[nH]c3ncc(-c4ccc5c(n4)CCC(N4CCCC4)CC5)cc23)cc1Cl (stereo not drawn) [Example 60, 2-(2-Chloro-4-{5-[7-(pyrrolidin-1-yl)-5H,6H,7H,8H,9H-cyclohepta[b]pyridin-2-yl]-1H-pyrazolo[3,4-b]pyridin-3-yl}phenyl)propan-2-ol]
100 to 1000	CS(=O)(=O)c1ccc(-c2n[nH]c3ncc(-c4ccc5c(c4)CCN(C4CCCC4)CC5)cc23)cc1 [Example 30, 3-Cyclopentyl-7-(3-(4-(methylsulfonyl)phenyl)-1H-pyrazolo[3,4-b]pyridin-5-yl)-2,3,4,5-tetrahydro-1H-benzo[d]azepine]
< 100	C[C@H]1CCCN1C1CCc2ccc(-c3cnc4[nH]nc(-c5ccc(C(C)(C)O)c(Cl)c5)c4c3)cc2CC1 (stereo partly drawn) [Example 37, 2-(2-Chloro-4-(5-(7-((S)-2-methylpyrrolidin-1-yl)-6,7,8,9-tetrahydro-5H-benzo[7]annulen-2-yl)-1H-pyrazolo[3,4-b]pyridin-3-yl)phenyl)propan-2-ol]
< 100	C[C@@H]1CCCN1C1(C)CCc2ccc(-c3cnc4[nH]nc(-c5ccc(C(N)=O)c(F)c5)c4c3)cc2CC1 (stereo partly drawn) [Example 52, 2-Fluoro-4-(5-(7-methyl-7-((R)-2-methylpyrrolidin-1-yl)-6,7,8,9-tetrahydro-5H-benzo[7]annulen-2-yl)-1H-pyrazolo[3,4-b]pyridin-3-yl)benzamide]
< 100	CC(C)S(=O)(=O)c1ccc(-c2n[nH]c3ncc(-c4ccc5c(c4)CC[C@@H](N4CCCC4)CC5)cc23)cc1 [Example 42, (S)-3-(4-(Isopropylsulfonyl)phenyl)-5-(7-(pyrrolidin-1-yl)-6,7,8,9-tetrahydro-5H-benzo[7]annulen-2-yl)-1H-pyrazolo[3,4-b]pyridine]
< 100	C[C@H]1CCCN1C1CCc2ccc(-c3cnc4[nH]nc(-c5ccc(S(C)(=O)=O)cc5)c4c3)cc2CC1 (stereo partly drawn) [Example 36, 5-(7-((S)-2-Methylpyrrolidin-1-yl)-6,7,8,9-tetrahydro-5H-benzo[7]annulen-2-yl)-3-(4-(methylsulfonyl)phenyl)-1H-pyrazolo[3,4-b]pyridine]
100 to 1000	CC(C)(O)c1ccc(-c2n[nH]c3ncc(-c4ccc5c(c4)CCN(C4CCCC4)CC5)cc23)cc1Cl [Example 12, 2-{2-Chloro-4-[5-(3-cyclopentyl-2,3,4,5-tetrahydro-1H-3-benzazepin-7-yl)-1H-pyrazolo[3,4-b]pyridin-3-yl]phenyl}propan-2-ol]
100 to 1000	CC(C)(O)c1ccc(-c2n[nH]c3ncc(-c4ccc5c(c4)CCN(C4CCCC4)CC5)cc23)c(F)c1 [Example 17, 2-{4-[5-(3-Cyclopentyl-2,3,4,5-tetrahydro-1H-3-benzazepin-7-yl)-1H-pyrazolo[3,4-b]pyridin-3-yl]-3-fluorophenyl}propan-2-ol]
< 100	CC(C)(O)c1ccc(-c2n[nH]c3ncc(-c4cc5c(cn4)CCC(N4CCCC4)CC5)cc23)cc1Cl (stereo not drawn) [Example 59, 2-(2-Chloro-4-{5-[7-(pyrrolidin-1-yl)-5H,6H,7H,8H,9H-cyclohepta[c]pyridin-3-yl]-1H-pyrazolo[3,4-b]pyridin-3-yl}phenyl)propan-2-ol]
< 100	C[C@@H]1CCCN1C1CCc2ccc(-c3cnc4[nH]nc(-c5ccc(C6(O)CCC6)c(Cl)c5)c4c3)cc2CC1 (stereo partly drawn) [Example 62, 1-[2-Chloro-4-(5-{7-[(2R)-2-methylpyrrolidin-1-yl]-6,7,8,9-tetrahydro-5H-benzo[7]annulen-2-yl}-1H-pyrazolo[3,4-b]pyridin-3-yl)phenyl]cyclobutan-1-ol]
